{
  "source": "patent US20260078122A1",
  "about": "“INDAZOLE COMPOUNDS AS PKMYT1 KINASE INHIBITORS” (Hoffmann-La Roche Inc., priority 2023, published 2026)",
  "key": {"[1]": {"test": "Human microsome stability assay", "details": "1 μM compound, 0.5 mg/mL liver microsomal protein, 1 mM NADPH, 37° C., 0-30 minutes"}, "[2]": {"biological_target": "T1, recombinant human Myt1 (full length PKMYT1) (Homo sapiens, UniProt Q99640)", "T1 sequence (Q99640 1-499)": "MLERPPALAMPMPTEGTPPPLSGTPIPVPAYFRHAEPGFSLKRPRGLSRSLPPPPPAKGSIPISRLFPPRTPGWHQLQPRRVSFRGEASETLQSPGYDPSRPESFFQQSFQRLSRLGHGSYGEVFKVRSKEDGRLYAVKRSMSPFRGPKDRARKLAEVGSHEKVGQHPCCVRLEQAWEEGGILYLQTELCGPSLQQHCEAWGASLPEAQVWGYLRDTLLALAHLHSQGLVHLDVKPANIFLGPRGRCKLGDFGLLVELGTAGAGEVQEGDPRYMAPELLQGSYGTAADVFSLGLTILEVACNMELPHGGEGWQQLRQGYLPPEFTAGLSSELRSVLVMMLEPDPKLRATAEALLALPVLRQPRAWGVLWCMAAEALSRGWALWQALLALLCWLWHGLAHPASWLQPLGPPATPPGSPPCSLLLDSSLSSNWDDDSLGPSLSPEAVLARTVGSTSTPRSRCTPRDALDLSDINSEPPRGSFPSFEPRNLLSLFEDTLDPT", "test": "ADP-Glo assay (Myt1 kinase activity)"}},
  "data": [
    {"smiles": "Nc1c(-c2ccc(F)c3[nH]ncc23)c2ncc(F)cc2[nH]c1=O", "note": "[Example 004, 3-Amino-7-fluoro-4-(7-fluoro-1H-indazol-4-y1)-1H-1,5-naphthyridin-2-one]", "values": [
      {"measurement": "Clearance of Human microsome", "setting": "[1]", "result": 6.15, "unit": "mL/min/kg"}
    ]},
    {"smiles": "COc1cnc2c(-c3ccc(F)c4[nH]ncc34)c(N)c(=O)[nH]c2c1", "note": "[Example 006, 3-Amino-4-(7-fluoro-1H-indazol-4-yl)-7-methoxy-1H-1,5-naphthyridin-2-one]", "values": [
      {"measurement": "Clearance of Human microsome", "setting": "[1]", "result": 6.15, "unit": "mL/min/kg"}
    ]},
    {"smiles": "Cn1cncc1-c1cnc2c(-c3ccc(F)c4[nH]ncc34)c(N)c(=O)[nH]c2c1", "note": "[Example 008, 3-Amino-4-(7-fluoro-1H-indazol-4-yl)-7-(3-methylimidazol-4-yl)-1H-1,5-naphthyridin-2-one]", "values": [
      {"measurement": "Clearance of Human microsome", "setting": "[1]", "result": 6.15, "unit": "mL/min/kg"}
    ]},
    {"smiles": "Nc1c(-c2ccc(F)c3[nH]ncc23)c2ncc(-c3ccn[nH]3)cc2[nH]c1=O", "note": "[Example 009, 3-Amino-4-(7-fluoro-1H-indazol-4-yl)-7-(1H-pyrazol-5-yl)-1H-1,5-naphthyridin-2-one]", "values": [
      {"measurement": "Clearance of Human microsome", "setting": "[1]", "result": 6.15, "unit": "mL/min/kg"}
    ]},
    {"smiles": "Nc1c(-c2ccc(F)c3[nH]ncc23)c2ncc(-c3ccnnc3)cc2[nH]c1=O", "note": "[Example 012, 3-Amino-4-(7-fluoro-1H-indazol-4-yl)-7-pyridazin-4-yl-1H-1,5-naphthyridin-2-one]", "values": [
      {"measurement": "Clearance of Human microsome", "setting": "[1]", "result": 6.15, "unit": "mL/min/kg"}
    ]},
    {"smiles": "Nc1c(-c2ccc(F)c3[nH]ncc23)c2ncc(-c3ccc(F)cn3)cc2[nH]c1=O", "note": "[Example 014, 3-Amino-4-(7-fluoro-1H-indazol-4-yl)-7-(5-fluoro-2-pyridyl)-1H-1,5-naphthyridin-2-one]", "values": [
      {"measurement": "Clearance of Human microsome", "setting": "[1]", "result": 6.15, "unit": "mL/min/kg"}
    ]},
    {"smiles": "Nc1c(-c2ccc(F)c3[nH]ncc23)c2ncc(-c3nccs3)cc2[nH]c1=O", "note": "[Example 016, 3-Amino-4-(7-fluoro-1H-indazol-4-yl)-7-thiazol-2-yl-1H-1,5-naphthyridin-2-one]", "values": [
      {"measurement": "Clearance of Human microsome", "setting": "[1]", "result": 8.06, "unit": "mL/min/kg"}
    ]},
    {"smiles": "Nc1c(-c2ccc(F)c3[nH]ncc23)c2ncc(N3CCOCC3)cc2[nH]c1=O", "note": "[Example 019, 3-Amino-4-(7-fluoro-1H-indazol-4-yl)-7-morpholino-1H-1,5-naphthyridin-2-one]", "values": [
      {"measurement": "Clearance of Human microsome", "setting": "[1]", "result": 6.15, "unit": "mL/min/kg"}
    ]},
    {"smiles": "CC(C)(O)c1cnc2c(-c3ccc(F)c4[nH]ncc34)c(N)c(=O)[nH]c2c1", "note": "[Example 020, 3-Amino-4-(7-fluoro-1H-indazol-4-yl)-7-(1-hydroxy-1-methyl-ethyl)-1H-1,5-naphthyridin-2-one]", "values": [
      {"measurement": "Clearance of Human microsome", "setting": "[1]", "result": 6.15, "unit": "mL/min/kg"}
    ]},
    {"smiles": "Cc1cc2[nH]c(=O)c(N)c(-c3ccc(F)c4[nH]ncc34)c2nc1NC(C)C", "note": "[Example 023, 3-Amino-4-(7-fluoro-1H-indazol-4-yl)-6-(isopropylamino)-7-methyl-1H-1,5-naphthyridin-2-one]", "values": [
      {"measurement": "Clearance of Human microsome", "setting": "[1]", "result": 8.58, "unit": "mL/min/kg"}
    ]},
    {"smiles": "Cc1cnc2c(-c3cccc4[nH]ncc34)c(N)c(=O)[nH]c2c1", "note": "[Example 033, 3-Amino-4-(1H-indazol-4-yl)-7-methyl-1H-1,5-naphthyridin-2-one]", "values": [
      {"measurement": "Clearance of Human microsome", "setting": "[1]", "result": 6.22, "unit": "mL/min/kg"}
    ]},
    {"smiles": "Nc1c(-c2cccc3[nH]ncc23)c2ncc(C3CC3)cc2[nH]c1=O", "note": "[Example 034, 3-Amino-7-cyclopropyl-4-(1H-indazol-4-yl)-1H-1,5-naphthyridin-2-one]", "values": [
      {"measurement": "Clearance of Human microsome", "setting": "[1]", "result": 6.15, "unit": "mL/min/kg"}
    ]},
    {"smiles": "Nc1c(-c2cc(F)cc3[nH]ncc23)c2ncc(Cl)cc2[nH]c1=O", "note": "[Example 036, 3-Amino-7-chloro-4-(6-fluoro-1H-indazol-4-yl)-1H-1,5-naphthyridin-2-one]", "values": [
      {"measurement": "Clearance of Human microsome", "setting": "[1]", "result": 6.15, "unit": "mL/min/kg"}
    ]},
    {"smiles": "Cc1cc2[nH]c(=O)c(N)c(-c3ccc(F)c4[nH]ncc34)c2nc1N1CCNCC1", "note": "[Example 044, 3-Amino-4-(7-fluoro-1H-indazol-4-yl)-7-methyl-6-piperazin-1-yl-1H-1,5-naphthyridin-2-one]", "values": [
      {"measurement": "Clearance of Human microsome", "setting": "[1]", "result": 6.15, "unit": "mL/min/kg"}
    ]},
    {"smiles": "Cc1ncc(Cl)c2c(-c3ccc(F)c4[nH]ncc34)c(N)c(=O)[nH]c12", "note": "[Example 176, 3-Amino-5-chloro-4-(7-fluoro-1H-indazol-4-yl)-8-methyl-1H-1,7-naphthyridin-2-one]", "values": [
      {"measurement": "IC50", "setting": "[2]", "result": 14.3, "unit": "nM"}
    ]},
    {"smiles": "Cc1ncc(C)c2c(-c3ccc(F)c4[nH]ncc34)c(N)c(=O)[nH]c12", "note": "[Example 177, 3-Amino-4-(7-fluoro-1H-indazol-4-yl)-5,8-dimethyl-1H-1,7-naphthyridin-2-one]", "values": [
      {"measurement": "IC50", "setting": "[2]", "result": 13.9, "unit": "nM"}
    ]},
    {"smiles": "CCc1cnc(C)c2[nH]c(=O)c(N)c(-c3ccc(F)c4[nH]ncc34)c12", "note": "[Example 178, 3-Amino-5-ethyl-4-(7-fluoro-1H-indazol-4-yl)-8-methyl-1H-1,7-naphthyridin-2-one]", "values": [
      {"measurement": "IC50", "setting": "[2]", "result": 18.1, "unit": "nM"}
    ]},
    {"smiles": "Cc1ncc(F)c2c(-c3ccc(F)c4[nH]ncc34)c(N)c(=O)[nH]c12", "note": "[Example 179, 3-Amino-5-fluoro-4-(7-fluoro-1H-indazol-4-yl)-8-methyl-1H-1,7-naphthyridin-2-one]", "values": [
      {"measurement": "IC50", "setting": "[2]", "result": 12.5, "unit": "nM"}
    ]},
    {"smiles": "Nc1c(-c2ccc(F)c3[nH]ncc23)c2c(OCc3ccccc3)cnc(Cl)c2[nH]c1=O", "note": "[Example 180, 3-Amino-5-benzyloxy-8-chloro-4-(7-fluoro-1H-indazol-4-yl)-1H-1,7-naphthyridin-2-one]", "values": [
      {"measurement": "IC50", "setting": "[2]", "result": 22.6, "unit": "nM"}
    ]},
    {"smiles": "Cc1ncc(OCc2ccccc2)c2c(-c3ccc(F)c4[nH]ncc34)c(N)c(=O)[nH]c12", "note": "[Example 181, 3-Amino-5-benzyloxy-4-(7-fluoro-1H-indazol-4-yl)-8-methyl-1H-1,7-naphthyridin-2-one]", "values": [
      {"measurement": "IC50", "setting": "[2]", "result": 20, "unit": "nM"}
    ]},
    {"smiles": "Cc1ncc(OCC(F)F)c2c(-c3ccc(F)c4[nH]ncc34)c(N)c(=O)[nH]c12", "note": "[Example 186, 3-Amino-5-(2,2-difluoroethoxy)-4-(7-fluoro-1H-indazol-4-yl)-8-methyl-1H-1,7-naphthyridin-2-one]", "values": [
      {"measurement": "IC50", "setting": "[2]", "result": 15.8, "unit": "nM"}
    ]},
    {"smiles": "Cc1ncc(OC2CC2)c2c(-c3ccc(F)c4[nH]ncc34)c(N)c(=O)[nH]c12", "note": "[Example 187, 3-Amino-5-(cyclopropoxy)-4-(7-fluoro-1H-indazol-4-yl)-8-methy-1H-1,7-naphthyridin-2-one]", "values": [
      {"measurement": "IC50", "setting": "[2]", "result": 10.8, "unit": "nM"}
    ]},
    {"smiles": "Cc1ncc(OCCC(F)F)c2c(-c3ccc(F)c4[nH]ncc34)c(N)c(=O)[nH]c12", "note": "[Example 188, 3-Amino-5-(3,3-difluoropropoxy)-4-(7-fluoro-1H-indazol-4-yl)-8-methyl-1H-1,7-naphthyridin-2-one]", "values": [
      {"measurement": "IC50", "setting": "[2]", "result": 15, "unit": "nM"}
    ]},
    {"smiles": "Cc1ncc(OC2CCC2)c2c(-c3ccc(F)c4[nH]ncc34)c(N)c(=O)[nH]c12", "note": "[Example 189, 3-Amino-5-(cyclobutoxy)-4-(7-fluoro-1H-indazol-4-yl)-8-methyl-1H-1,7-naphthyridin-2-one]", "values": [
      {"measurement": "IC50", "setting": "[2]", "result": 10.6, "unit": "nM"}
    ]},
    {"smiles": "CCCOc1cnc(C)c2[nH]c(=O)c(N)c(-c3ccc(F)c4[nH]ncc34)c12", "note": "[Example 190, 3-Amino-4-(7-fluoro-1H-indazol-4-yl)-8-methyl-5-propoxy-1H-1,7-naphthyridin-2-one]", "values": [
      {"measurement": "IC50", "setting": "[2]", "result": 15.3, "unit": "nM"}
    ]},
    {"smiles": "Cc1ncc(OCC2CC2)c2c(-c3ccc(F)c4[nH]ncc34)c(N)c(=O)[nH]c12", "note": "[Example 191, 3-Amino-5-(cyclopropylmethoxy)-4-(7-fluoro-1H-indazol-4-yl)-8-methyl-1H-1,7-naphthyridin-2-one]", "values": [
      {"measurement": "IC50", "setting": "[2]", "result": 15.7, "unit": "nM"}
    ]},
    {"smiles": "Cc1ncc(OC(F)(F)F)c2c(-c3ccc(F)c4[nH]ncc34)c(N)c(=O)[nH]c12", "note": "[Example 192, 3-Amino-4-(7-fluoro-1H-indazol-4-yl)-8-methyl-5-(trifluoromethoxy)-1H-1,7-naphthyridin-2-one]", "values": [
      {"measurement": "IC50", "setting": "[2]", "result": "< 10", "unit": "nM"}
    ]},
    {"smiles": "COCc1cnc(C)c2[nH]c(=O)c(N)c(-c3ccc(F)c4[nH]ncc34)c12", "note": "[Example 193, 3-Amino-4-(7-fluoro-1H-indazol-4-yl)-5-(methoxymethyl)-8-methyl-1H-1,7-naphthyridin-2-one]", "values": [
      {"measurement": "IC50", "setting": "[2]", "result": 33.3, "unit": "nM"}
    ]}
  ]
}
